Key:
[1] = tested on: Ser-Arg rich splicing factors (SRSF); assay: SRSF phosphorylation in mESCs, immunoblotting with phosphoepitope SR proteins antibody; type: cell-based, mouse; conditions: 10 μM, 4 h
Experimental: SRSF phosphorylation, SRPK1, SRPK2, and ERK1/2 levels were determined by immunoblotting. […] Quantification of SRSF phosphorylation (Right). Data represented as mean ± SEM (n = 4). […] Data represented as mean ± SEM (n = 3). One-way ANOVA followed by Tukey’s multiple comparisons test; confidence level 95%.
SDS-PAGE electrophoresis and immunoblotting was performed using standard methods. Cells were lysed in lysis buffer (20 mM Tris [pH 7.4], 150 mM NaCl, 1 mM EDTA, 1% NP-40 [v/v], 0.5% sodium deoxycholate [w/v], 10 mM β-glycerophosphate, 10 mM sodium pyrophosphate, 1 mM NaF, 2 mM Na3VO4, and Roche Complete Protease Inhibitor Cocktail Tablets). Phospho-specific antibodies were used at 1 μg/ml with 10 μg/ml of the corresponding non-phosphopeptide. After secondary antibody incubation, membranes were subjected to chemiluminescence detection with Immobilon Western Chemiluminescent HRP Substrate (Millipore) using a Gel-Doc XR+ System (Bio-Rad) or Infrared detection using a LI-COR Odyssey Clx system.

[2] = tested on: Foxp1 exon 16-16b alternative splicing switch; assay: Foxp1 exon 16-16b incorporation in mESCs by quantitative RT-PCR; type: cell-based, mouse; conditions: 1 μM, 8 h
Experimental: SRSF phosphorylation, SRPK1, SRPK2, and ERK1/2 levels were determined by immunoblotting. Expected positions of SRSFs that are not detected are shown in gray. Quantification of SRSF phosphorylation (Right). Data represented as mean ± SEM (n = 4). […] Neuro 2a is a control for exon 16b exclusion in differentiated cells (Bottom). Data represented as mean ± SEM (n = 3). […] Exon 16 inclusion: (^∗∗∗∗) p < 0.0001, Exon 16b inclusion: (^∗) p = 0.0164, p = 0.0485, and p = 0.0489 (left to right). Ratio exon 16b/16: (^∗∗∗∗) p < 0.0001, (^∗∗∗) p = 0.0003. (C) SRPK substrates predicted using ScanProsite and grouped according to UniProt functions. (D) RNF12 phosphorylation sites detected by mass-spectrometry. LZL, leucine-zipper like; NLS, nuclear localization signal; NES, nuclear export signal; RING, RING E3 ubiquitin ligase catalytic domain. (E) CMGC family kinase copy numbers in mESCs determined by quantitative proteomics and represented using Kinoviewer. (F) CMGC kinase (200 mU) phosphorylation of the RNF12 SR-motif in vitro was determined by immunoblotting for RNF12 phospho-Ser214 and total RNF12. […] Normalized RNF12 Ser214 phosphorylation is shown below. Data represented as mean ± SEM (n = 3). […] RNF12 SR-motif phosphorylation was analyzed by immunoblotting for RNF12 phospho-Ser214 and RNF12. SRPK1 and SRPK2 levels are shown as a loading control, Related to Figure S1; Tables S1 and S2.
Total RNA extraction and reverse transcription was performed as described. Quantitative PCR reactions using SsoFast EvaGreen Supermix (Bio-Rad) were performed in a CFX384 real time PCR system (Bio-Rad). Relative RNA expression was calculated through the ΔΔCt method and normalised to Gapdh expression. Data was analysed in Excel (Microsoft) and statistical analysis performed in GraphPad Prism v7.0c software (GraphPad Software Inc.).

SRPK2 = SRPK2 (Homo sapiens, UniProt P78362); assay: Inhibition of RNF12 phosphorylation in vitro by SRPK2 (phospho-Ser214 immunoblot, dose-response); type: biochemical; conditions: only this inhibitor of SRPIN340, SPHINX31, SRPKIN-1
Chain of SRPK2 (P78362 1-699 isoform P78362-2): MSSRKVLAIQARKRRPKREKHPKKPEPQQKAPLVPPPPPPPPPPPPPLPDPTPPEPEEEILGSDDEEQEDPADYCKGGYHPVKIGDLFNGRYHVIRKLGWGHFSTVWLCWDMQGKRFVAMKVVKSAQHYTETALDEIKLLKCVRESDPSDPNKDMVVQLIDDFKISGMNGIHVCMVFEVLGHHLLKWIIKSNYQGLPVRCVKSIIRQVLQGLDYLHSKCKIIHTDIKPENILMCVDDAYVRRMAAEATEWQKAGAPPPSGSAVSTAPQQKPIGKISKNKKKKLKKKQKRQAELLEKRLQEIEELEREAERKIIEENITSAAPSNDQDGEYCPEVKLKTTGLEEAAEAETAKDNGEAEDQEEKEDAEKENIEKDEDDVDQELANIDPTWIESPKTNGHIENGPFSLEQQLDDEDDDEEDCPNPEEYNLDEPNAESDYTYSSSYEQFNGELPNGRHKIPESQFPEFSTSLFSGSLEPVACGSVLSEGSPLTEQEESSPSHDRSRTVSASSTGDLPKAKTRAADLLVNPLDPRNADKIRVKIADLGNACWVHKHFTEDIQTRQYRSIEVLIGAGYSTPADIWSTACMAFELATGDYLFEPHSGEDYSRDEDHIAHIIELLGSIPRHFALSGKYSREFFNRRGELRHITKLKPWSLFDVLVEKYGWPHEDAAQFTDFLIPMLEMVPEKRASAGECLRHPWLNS
Experimental: Cells were lysed, and 1.5 mg of protein immunoprecipitated with 2 μg of SRPK1 or SRPK2 antibodies (BD Biosciences). Immunoprecipitates were then washed with lysis buffer supplemented with 500 mM NaCl and half of the sample was resuspended in loading buffer. The remainder was subjected to in vitro phosphorylation assay containing 0.5 μg RNF12 and 2 mM ATP in kinase buffer (50 mM Tris-HCl [pH 7.5], 0.1 mM EGTA, 10 mM MgCl2, 2 mM DTT) and incubated at 30°C for 30 min. […] For radioactive in vitro kinase assays, reactions were supplemented with 1 μCi γ-^32P ATP. Reactions were incubated at 30°C for 30 min in presence or absence of inhibitor as indicated and samples subjected to polyacrylamide electrophoresis and immunoblot or Coomassie blue staining and signal detected via ECL, infrared detection or autoradiography.
Supplemental Figure Legends
(Related to Figure 1). (A) Wild-type (WT) mESCs were analysed for protein copy number by absolute quantitative proteomics. […]
Data are represented as mean ± S.E.M. (n=3). […] ND = not detected. (B) Inhibition of RNF12 phosphorylation in vitro by SRPK1 and SRPK2 in the presence of varying concentrations of the indicated SRPK inhibitors was determined by immunoblotting for RNF12 phospho-Ser214 (Left). […] Immunoblots were quantified to generate SRPK inhibitor dose-response curves for inhibition of RNF12 phosphorylation by SRPK1 and SRPK2 in vitro (Right). […]

RNF12 SR-motif = RNF12 SR-motif phosphorylation in mESCs by phos-tag immunoblotting; type: cell-based, mouse; conditions: 4 h
Text: RNF12 4xSA = S212A/S214A/S227A/S229A. (B) Rlim^−^/y mESCs were transfected with the indicated RNF12 constructs and lysates treated with λ-phosphatase and analyzed by phos-tag immunoblotting for RNF12. Unphosphorylated recombinant RNF12 is included as a control. […] RNF12 4xSA is included as an unphosphorylated control. […] (F) Phosphorylated peptides detected by mass spectrometry following in vitro phosphorylation of RNF12 by SRPK1. pS, phospho-serine. (G) Autoradiography of RNF12 WT or S212A/S214A/S227A/S229A (4xSA) following a radioactive kinase reaction with SRPK1, SRPK2, or SRPK3. RNF12 protein is detected by Coomassie staining. (H) Srpk1^+/+ and Srpk1^−/− mESCs were transfected with control or SRPK2 siRNA and RNF12 SR-motif phosphorylation analyzed by phos-tag immunoblotting for RNF12. SRPK2, SRPK1, RNF12, and ERK1/2 levels were determined by immunoblotting. Related to Figure S2; Tables S3 and S4.
All compounds were diluted in DMSO and mESCs treated with 10 μM inhibitor for 4 h prior lysis unless indicated otherwise. […] For proteasome inhibition mESCs were treated with 10 μM MG132 (Sigma Aldrich) for 6 h. All chemicals are listed in the Key Resource Table.
Phos-tag analyses were performed by loading protein samples containing 10 mM MnCl2 in 8% polyacrylamide gels containing 50 μM Phos-tag reagent (MRC-PPU reagents and services) and 0.1 mM MnCl2. After electrophoresis, gels were washed three times for 10 mins in Transfer buffer (48 mM Tris, 39 mM Glycine, 20% Methanol) supplemented with 20 mM EDTA. Proteins were then transferred to Nitrocellulose membranes, blocked and probed with the indicated antibodies. All protein signals were quantified using Image Studio (LI-COR Biosciences) or Image Lab software (Bio-Rad). Primary antibodies are listed in the Key Resource Table. […]
SR-motif phosphorylation of HA-immunoprecipitated RNF12 analysed by phos-tag immunoblotting.
HA-RNF12 levels are shown as a control. Fully phosphorylated (4-P) and unphosphorylated (0-P) RNF12 SR-motif is indicated by open (○) and closed (●) circles respectively.
Data are represented as mean ± S.D. (n=3). (C) RNF12 expressing mESCs were treated with 10 […]
immunoblotting. HA-RNF12 and ERK1/2 levels are shown as a control. (D) RNF12 expressing […]
5 h (+ wash-out). RNF12 phosphorylation was analysed via phos-tag immunoblotting. ERK1/2 levels are shown as a loading control. (E) Multiple Srpk1-/- and Srpk2-/- mESC clones were […]

## CCc1cc2c(cc1-c1cccc(S(=O)(=O)F)c1)C(C)(C)c1[nH]c3cc(C#N)ccc3c1C2=O [SRPKIN-1]
[1]
  phosphorylation of SRSF4: only slightly inhibited
  phosphorylation of SRSF6/11, SRSF5/7/10: not significantly altered
[2]
  Foxp1 exon 16b-exon 16 inclusion: little effect
SRPK2
  inhibition of SRPK2: potently inhibited
RNF12 SR-motif; 10 μM, HA-RNF12 immunoprecipitates, phos-tag and phospho-Ser214 multiplex immunoblot
  Ser214 phosphorylation of the high-mobility form of RNF12: completely dephosphorylated
RNF12 SR-motif
  concentration leading to RNF12 SR-motif de-phosphorylation (as low as): 1 µM
